These results are taken from patent US20240336568A1, “SELECTIVE PHD1 INHIBITOR COMPOUNDS, COMPOSITIONS, AND METHODS OF USE” (Akebia Therapeutics, Inc., priority 2021, published 2024).

The assay relates to full-length human prolyl-4-hydroxylase domain (PHD) enzymes, PHD1 and PHD2. The experiment in a line: TR-FRET assay, selectivity of compounds for PHD1 over PHD2 (ratio of Kis calculated from IC50s). The format is biochemical. The note with it: ratio of Kis (PHD2 Ki/PHD1 Ki), Kis calculated from TR-FRET IC50s by Cheng Prussoff equation; 1 uM 2-OG. An excerpt: Time-resolved fluorescence resonance energy transfer (TR-FRET) assay was utilized to determine the enzymatic half maximal inhibitory concentration (IC50) value of PHD inhibitors against the full-length human prolyl-4-hydroxylase domain (PHD) enzymes, PHD1 and PHD2. The TR-FRET assay was developed based on the specific binding of hydroxylated HIF-la peptide with the complex formed by VHL, EloB and EloC (VBC), to generate a fluorescent signal. Terbium (Tb)-Donor (monoclonal antibody anti-6His-Tb-cryptate Gold) and D2-acceptor (streptavidin [SA]-D2) of TR-FRET are linked to the VBC complex and to HIF-1α peptide, respectively. The VBC complex binds specifically to the HIF-1α peptide when it is hydroxylated, allowing energy transfer from TR-FRET donor to acceptor (FIG. 1).
TR-FRET Reagents. Monoclonal antibody anti-6His-Tb-cryptate Gold (catalog #61HI2TLA) and streptavidin (SA)-D2 (catalog #610SADLA) were purchased from CisBio International (Bedford, MA, USA).
N-terminus biotinylated HIF-1α C35 synthetic peptide representing amino acids 547 to 581 and including the proline 564 PHD2 hydroxylation site was purchased from California Peptide Research (Salt Lake City, UT, USA).
VBC Complex. His-tagged recombinant VHL protein, EloB, EloC complex (His-VBC) was supplied by Axxam (Milan, Italy). Recombinant human VHL (National Center for Biotechnology Information [NCBI] accession number NP_00542.1) contained a His tag at the C-terminus of amino acids 55 to 213 and is referred to as VHL-His. VHL-His was co-expressed in E. coli with full-length human EloB (NCBI accession number Q15370.1) and full-length human EloC (NCBI accession number Q15369.1) and purified by affinity chromatography on a nickel-nitrilotriacetic acid (Ni-NTA) column as the His-VBC complex. Purity (˜80%) was assessed by sodium dodecyl sulfate polyacrylamide gel electrophoresis (SDS-PAGE).
PHD1. Recombinant human PHD1 protein (catalog #81064, Lot #24717001) was purchased from Active Motif (Carlsbad, CA, USA). PHD1 was expressed in a baculovirus expression system as the full-length protein (NCBI accession number NP_542770.2) with an N-terminal FLAG tag (molecular weight 44.9 kDa). Purity (>90%) was assessed by SDS-PAGE.
PHD2. The full-length human PHD2 enzyme was produced with a baculovirus infected insect cell (BIIC) expression system by Beryllium (Bedford, MA, USA). The PHD2 construct contained amino acids 1 to 426 of PHD2 (UniProt Knowledgebase[UniProtKB]/Swiss-Prot accession number Q9GZT9.1), and a His tag and a Tobacco Etch Virus (TEV) protease cleavage site at the N-terminus. The construct was expressed in Sf9 insect cells, purified by Ni-NTA column and digested with TEV protease to remove the His tag.
Compounds were preincubated with PHD enzyme in a 10 μL reaction volume in white 384-well Optiplate microplates (catalog #6007290, Perkin Elmer, Waltham, MA, USA). For this, 5 μL compound was serially diluted with dilution buffer (50 mM HEPES [4-(2-hydroxyethyl)-1-piperazineethanesulfonic acid] pH 7.5, 50 mM sodium chloride [NaCl], 0.01% Tween-20, 0.01% purified bovine serum albumin [BSA]) and mixed with 5 μL PHD enzyme mix prepared as a 4× concentrate in the dilution buffer containing PHD enzyme (60 nM PHD1, 20 nM PHD2, 140 nM PHD3), 40 μM ferrous ammonium sulfate (FAS), 4 mM sodium (Na) ascorbate. The plates were incubated for 30 minutes at room temperature without rotation.
Five microliters of the VBC/anti-6His-Tb-cryptate Gold mix prepared as a 4× concentrate in dilution buffer containing 20 nM His-VBC, 1.32 nM monoclonal antibody anti-6His-Tb-cryptate Gold was then added. This step was followed immediately by the addition of 5 μL of the HIF-1α C35 substrate mix prepared as a 4× concentrate in the dilution buffer containing 120 nM biotin-labeled HIF-1α C35, 132 nM SA-D2, 4 μM 2-oxoglutarate (2-OG) to reach a final reaction volume of 20 μL. […]
As to `CC(C)(CNC(=O)c1ncc(-c2cccc(NCCc3ccc(Cl)cc3)c2)cc1O)C(=O)O` [compound 52, 3-(5-(3-((4-Chlorophenethyl)amino)phenyl)-3-hydroxypicolinamido)-2,2-dimethylpropanoic acid], the “Selectivity of PHD1 over PHD2” value was roughly 31 fold.

For `CC(C)(CNC(=O)c1ncc(-c2cnc(-c3ccccc3)s2)cc1O)C(=O)O` [compound 53, 3-(3-hydroxy-5-(2-phenylthiazol-5-yl)picolinamido)-2,2-dimethylpropanoic acid], the “Selectivity of PHD1 over PHD2” value is roughly 1215 fold.

For `O=C(O)CCNC(=O)c1ncc(-c2cnn(-c3ccccc3)c2)cc1O` [compound 54, 3-(3-hydroxy-5-(1-phenyl-1H-pyrazol-4-yl)picolinamido)propanoic acid], the “Selectivity of PHD1 over PHD2” value is reported as roughly 11 fold.

For the compound `COc1cc2c(-c3cnc(C(=O)NCC(C)(C)C(=O)O)c(O)c3)cn(C)c2cn1` [compound 55, 3-(3-hydroxy-5-(5-methoxy-1-methyl-1H-pyrrolo[2,3-c]pyridin-3-yl)picolinamido)-2,2-dimethylpropanoic acid], the “Selectivity of PHD1 over PHD2” value is reported as roughly 96 fold.

Regarding `CC(C)(CNC(=O)c1ncc(-c2scc3c2OCCO3)cc1O)C(=O)O` [compound 56, 3-(5-(2,3-dihydrothieno[3,4-b][1,4]dioxin-5-yl)-3-hydroxypicolinamido)-2,2-dimethylpropanoic acid], the “Selectivity of PHD1 over PHD2” value is listed as roughly 44 fold.

On to `CC(C)(CNC(=O)c1ncc(-c2ccc3c(=O)[nH]ncc3c2)cc1O)C(=O)O` [compound 57, 3-(3-hydroxy-5-(1-oxo-1,2-dihydrophthalazin-6-yl)picolinamido)-2,2-dimethylpropanoic acid], for which the “Selectivity of PHD1 over PHD2” value was roughly 64 fold.

In the case of `CCOc1ccc2cc(-c3cnc(C(=O)NCC(C)(C)C(=O)O)c(O)c3)ccc2c1` [compound 58, 3-(5-(6-ethoxynaphthalen-2-yl)-3-hydroxypicolinamido)-2,2-dimethylpropanoic acid], the “Selectivity of PHD1 over PHD2” value is given as roughly 911 fold.

As for `CC(C)(CNC(=O)c1ncc(-c2ccc3cc(NS(C)(=O)=O)ccc3c2)cc1O)C(=O)O` [compound 59, 3-(3-hydroxy-5-(6-(methylsulfonamido)naphthalen-2-yl)picolinamido)-2,2-dimethylpropanoic acid], the “Selectivity of PHD1 over PHD2” value is recorded as roughly 88 fold.

In the case of `Cc1c(-c2cnc(C(=O)NCC(C)(C)C(=O)O)c(O)c2)ccc2ccccc12` [compound 60, 3-(3-hydroxy-5-(1-methylnaphthalen-2-yl)picolinamido)-2,2-dimethylpropanoic acid], the “Selectivity of PHD1 over PHD2” value is roughly 204 fold.

For the compound `CC(C)c1ccc2sc(-c3cnc(C(=O)NCC(C)(C)C(=O)O)c(O)c3)cc2c1` [compound 61, 3-(3-hydroxy-5-(5-isopropylbenzo[b]thiophen-2-yl)picolinamido)-2,2-dimethylpropanoic acid], the “Selectivity of PHD1 over PHD2” value is given as roughly 341 fold.

Consider `O=C(O)CCNC(=O)c1ncc(-c2ccc3ccccc3c2)cc1O` [compound 62, 3-(3-hydroxy-5-(naphthalen-2-yl)picolinamido)propanoic acid], for which the “Selectivity of PHD1 over PHD2” value was roughly 24 fold.
